Values after ≈ are worked out from the molar mass of the structure shown. Square brackets hold non-standard residues; d marks the D form. Peptide text beside a SMILES is read from it.

This note sets out measurements from PMC9643456, “Matching amino acids membrane preference profile to improve activity of antimicrobial peptides” (Communications Biology, 2022).

The conditions of data set [1]: 100 mg/kg s.c. daily for 3 days, n = 3; BUN and creatinine.
Description: To assess nephrotoxicity, mice (female BALB/c, 8 weeks old; n = 3) were subcutaneously administered WCopW43 (100 mg/kg) or PBS (controls) three times (once every 24 h). Blood samples were then collected from the retroorbital veins into heparin-coated glass capillary tubes (Kimble Chase, NJ, USA), which were then centrifuged at 4000 rpm. The serum was collected and analyzed using a blood urea nitrogen (BUN) assay kit (Arbor Assay, Ann Arbor, USA) and a creatinine assay kit (Arbor Assay). Levels of BUN and blood creatinine clearance were measured using a SpectraMax plate spectrophotometer (Molecular Devices) at 450 nm and 490 nm, respectively.
Data set [2] relates to colistin-resistant A. baumannii. Put plainly: In vivo activity, survival of infected mice. The note with it: mouse model infected with colistin-resistant A. baumannii. The protocol: Female BALB/c mice (8-week old; n = 10) were purchased from orientbio (Gyeonggido, Republic of Korea) and fed under standardized environmental conditions for 1 week to be used to estimate time-dependent mouse survival rates. After inducing neutropenia by intraperitoneal injection of cyclophosphamide (150 mg/kg; Sigma), MDR S. aureus (KCCM 40510), MDR A. baumannii (colistin-resistant strain) or MDR K. pneumonia (colistin-resistant strain, NCCP 16125) was diluted in PBS and subcutaneously injected into mice (S. aureus, 1.5 × 10^8 CFU/ml; A. baumannii, 1 × 10^8 CFU/ml; K. pneumonia, 1 × 10^9 CFU/ml). After bacterial infection, 100 μl of WCopW43 peptide dissolved in distilled water (10 mg/ml) were injected (50 mg/kg) into each infected site, and survival was monitored every 12 h for 7 days. For A. baumannii infection, mice were intraperitoneally injected with mucin ([…], 1% in PBS, 300 μl) to suppress macrophages, and A. baumannii cells were incubated with mucin (1% in PBS) for 3 h before subcutaneous injection of 2 × 10^8 CFU/ml (0.2% mucin in PBS)[71]–[74]. Survival rates were calculated using the formula: 100% × (number of surviving mice/ten mice). One day after WCopW43 (50 mg/kg) injection, four mice were randomly selected and sacrificed by CO2 inhalation. […] Homogenized samples were spread onto MH agar plates, and CFU values were determined after incubation overnight at 37 °C.

Data set [3] relates to K. pneumonia strains. Description: microbe, parasite or virus in culture.
Data set [4] concerns A. baumannii (KCCM 40203) and S. aureus (KCTC 1621). The following applies: MIC and sub-MIC exposure for 30 days (30 passages). From the text:
(§1) A. baumannii (KCCM 40203) and S. aureus (KCTC 1621) were selected as drug-sensitive bacteria. Mutation-susceptible tetracycline (an antibiotic that targets ribosomes) (Sigma, Darmstadt, Germany) and ofloxacin (an antibiotic that targets DNA gyrase) (Sigma, Darmstadt, Germany), mutation-resistant colistin (an antibiotic that targets lipopolysaccharide) (Sigma, Darmstadt, Germany) and vancomycin (an antibiotic that targets peptidoglycan pentapeptide) (Sigma, Darmstadt, Germany) were used as control antibiotics. The MIC for each antibiotic against bacteria (at OD 0.01) was measured. […] The MIC for each passage was confirmed by additional broth microdilutions under CLSI guidelines. Resistance acquisition was induced for 30 days (30 passages), and each MIC value was confirmed by an independent MIC test against bacteria at each passage.

The test system of data set [5] is E. aerogenes NCCP 16285. Description: microbe, parasite or virus in culture. The protocol:
(§2) To assess antimicrobial activity, the MIC50 and MIC90 were measured using broth microdilution following CLSI guidelines. […] Each experiment was performed in triplicate. Meropenem (Sigma, Darmstadt, Germany) and colistin were used as control antibiotics. Cation-adjusted Mueller–Hinton broth (CAMHB) (Becton, Dickinson and Company, Franklin Lakes, USA) with supplied calcium (50 mg/L) and magnesium (10 mg/L) was used for the CLSI-test condition. Bacteria in midlog phase and peptides were separately diluted in CAMHB. The bacteria and peptide solutions were then mixed in 96-well polyethylene plates (SPL, Gyeonggi-do, Korea) and incubated for 18 h at 37 °C. The final concentration for bacteria was 5 × 10^5 CFU/ml. […] The MIC was defined to be the lowest concentration of peptide without visible turbidity by comparing with control antibiotics with the unaided eye. […] Each experiment was performed in triplicate. MICs in albumin and acetic acid solutions were measured using the same protocol but with 0.2% bovine serum albumin (Bovogen, Keilor, Australia), 0.01% acetic acid (Merck, New Jersey, USA), and CAMHB with both calcium and magnesium. In addition, MICs used in the antibiotic resistance acquisition test, the outer–inner membrane permeation test, and the transmembrane potential test and for FE-SEM were individually determined. The final bacterial concentrations used were as follows: for resistance acquisition, optical density (OD) 0.01; for outer–inner membrane permeability assays (LB), OD 0.1; for the transmembrane potential test, 1 × 10^8 CFU/ml (OD 0.171); […]. Inhibitory activity unidentifiable by direct observation was determined by counting the CFUs. Each experiment was performed at least twice.

Data set [6] relates to A. baumannii KCCM 40203. Put plainly: microbe, parasite or virus in culture. The note with it: bacteria OD 0.01, CAMHB. The protocol: as §2, §1
The subject of data set [7] is MDR S. aureus. Put plainly: Killing kinetics in the SEM sample. The data set is classed as cell-based, Staphylococcus aureus. The following applies: 2 × 10^8 cfu/ml, x1 MIC, PBS, after 4 hours. The protocol:
FE-SEM was used to observe peptide-induced changes in bacterial morphology. MDR A. baumannii (ATCC BAA-1605) and MDR S. aureus (KCCM 40510) were cultured in CAMHB to log phase and washed in PBS. Bacteria and peptides were diluted in PBS, after which aliquots of bacteria (50 μl) and peptides (50 μl) were mixed to yield the following final concentrations: MDR A. baumannii or MDR S. aureus, 2 × 10^8 CFU/ml; WCopW29, 2.5 μM. Mixtures were deposited onto cover glass slips and incubated for 0 min, 15 min, 30 min, 1 h or 4 h. After incubation, the bacteria were fixed with paraformaldehyde (4%) and osmium tetroxide (1%) (Sigma, Darmstadt, Germany), washed with water, and freeze-dried overnight. Freeze-dried samples were Pt-coated and placed in an S-4700, EMAX System field emission scanning electron microscope (Hitachi, Tokyo, Japan). Bacterial morphologies were imaged and recorded on video at magnifications of 10,000× and 25,000×.
Antimicrobial kinetics for each peptide and each bacterial strain were assessed using FE-SEM. […] Each experiment was performed in triplicate.

The subject of data set [8] is E. coli ML35. The following applies: ML35, 18 h. The protocol:
To assess antimicrobial activity, the MIC50 and MIC90 were measured using broth microdilution following CLSI guidelines. […] Each experiment was performed in triplicate. Meropenem (Sigma, Darmstadt, Germany) and colistin were used as control antibiotics. Cation-adjusted Mueller–Hinton broth (CAMHB) (Becton, Dickinson and Company, Franklin Lakes, USA) with supplied calcium (50 mg/L) and magnesium (10 mg/L) was used for the CLSI-test condition. Bacteria in midlog phase and peptides were separately diluted in CAMHB. The bacteria and peptide solutions were then mixed in 96-well polyethylene plates (SPL, Gyeonggi-do, Korea) and incubated for 18 h at 37 °C. The final concentration for bacteria was 5 × 10^5 CFU/ml. […] The MIC was defined to be the lowest concentration of peptide without visible turbidity by comparing with control antibiotics with the unaided eye. […] MICs in albumin and acetic acid solutions were measured using the same protocol but with 0.2% bovine serum albumin (Bovogen, Keilor, Australia), 0.01% acetic acid (Merck, New Jersey, USA), and CAMHB with both calcium and magnesium. In addition, MICs used in the antibiotic resistance acquisition test, the outer–inner membrane permeation test, and the transmembrane potential test and for FE-SEM were individually determined. […] Inhibitory activity unidentifiable by direct observation was determined by counting the CFUs. […]

`CC[C@@H](C)[C@@H](NC(=O)[C@@H](Cc1c[nH]c2ccccc12)NC(=O)[C@@H](CCCNC(=N)N)NC(=O)[C@@H](CCCNC(=N)N)NC(=O)[C@H](N)CCCNC(=N)N)C(=O)N[C@H](Cc1c[nH]c2ccccc12)C(=O)N[C@@H](C(=O)N[C@@H](C(=O)N[C@H](Cc1c[nH]c2ccccc12)C(=O)N[C@H](CCCCN)C(N)=O)[C@H](C)CC)C(C)C` [WCopW43] (H-[dR][dR][dR][dW][dI][dW][dV][dI][dW][dK]-NH2): in data set [1], the Nephrotoxicity indicators entry was “non-nephrotoxic”. The Survival rate in data set [2] is listed as 100%. Besides, in data set [3] (18 h), the “MIC, K. pneumonia NCCP 15782” value is 1.25 µM (≈ 1.87 µg/mL); the “MIC, K. pneumonia NCCP 15864” value was determined as 1.25 µM (≈ 1.87 µg/mL); the “MIC, K. pneumonia NCCP 15866” value was found to be 2.5 µM (≈ 3.74 µg/mL); the “MIC, K. pneumonia NCCP 16052” value stood at 2.5 µM (≈ 3.74 µg/mL). In addition, in data set [3] (18 h), the “MIC, K. pneumonia NCCP 16124” value is 1.25 µM (≈ 1.87 µg/mL); the “MIC, K. pneumonia NCCP 16125” value is 2.5 µM (≈ 3.74 µg/mL); the “MIC, K. pneumonia NCCP 16128” value was 5 µM (≈ 7.49 µg/mL); the “MIC, K. pneumonia NCCP 16208” value turned out to be 1.25 µM (≈ 1.87 µg/mL). Moreover, in data set [3] (18 h), the “MIC, K. pneumonia NCCP 16212” value was determined as 2.5 µM (≈ 3.74 µg/mL) and the “MIC, K. pneumonia NCCP 16213” value came out at 1.25 µM (≈ 1.87 µg/mL). Further, in data set [4], the “MIC during resistance acquisition” value is on record as “emergence of WCopW43 resistance is suppressed”. For the same compound, the “MIC, E. aerogenes NCCP 16285” value in data set [5] (NCCP 16285, 18 h) is 1.25 µM (≈ 1.87 µg/mL).
For Colistin, the “MIC at resistance induction condition, A. baumannii KCCM 40203” value in data set [6] stood at 1.25 µM. This compound also had a Survival rate in data set [2] of 90%. For the same compound, in data set [3] (CLSI), the “MIC, K. pneumonia NCCP 15782” value worked out at 1.25 µM; the “MIC, K. pneumonia NCCP 15864” value was 0.63 µM; the “MIC, K. pneumonia NCCP 15866” value worked out at 0.63 µM; the “MIC, K. pneumonia NCCP 16052” value came out at 0.63 µM. Moreover, in data set [3] (CLSI), the “MIC, K. pneumonia NCCP 16124” value stood at 20 µM; the “MIC, K. pneumonia NCCP 16128” value amounted to 5 µM; the “MIC, K. pneumonia NCCP 16208” value is less than 0.31 µM; the “MIC, K. pneumonia NCCP 16212” value is less than 0.31 µM. Further, the “MIC, K. pneumonia NCCP 16213” value in data set [3] (CLSI) worked out at 0.63 µM. In data set [5] (MIC test, 5 x 10^5 cfu/ml, CAMHB), the “MIC, E. aerogenes NCCP 16285” value is more than 5 µM.
Take `CC[C@@H](C)[C@@H](NC(=O)[C@@H](Cc1c[nH]c2ccccc12)NC(=O)[C@H](NC(=O)[C@@H](CC(C)C)NC(=O)[C@H](N)Cc1c[nH]c2ccccc12)C(C)C)C(=O)N[C@H](Cc1c[nH]c2ccccc12)C(=O)N[C@H](CCCNC(=N)N)C(=O)N[C@H](CCCNC(=N)N)C(=O)N[C@H](CCCNC(=N)N)C(N)=O` [WCopW29] (H-[dW][dL][dV][dW][dI][dW][dR][dR][dR]-NH2): the “Loss of colony forming” value in data set [7] was determined as 90%. For the same compound, the “MIC at OM-IM permeation condition, E. coli ML35” value in data set [8] turned out to be 5 µM (≈ 6.85 µg/mL). Further, the “MIC at resistance induction condition, A. baumannii KCCM 40203” value in data set [6] was determined as 1.25 µM (≈ 1.71 µg/mL). Also, in data set [4], the “MIC during resistance acquisition” value was “stable over a period of 30 days”.
